Drawing on patent publication US20230234936A1, “COMPOUND FOR TARGETING AND DEGRADING PROTEIN, AND PREPARATION METHOD THEREFOR AND USE THEREOF” (SHANGHAI LEADINGTAC PHARMACEUTICAL CO., LTD., priority 2020, published 2023), this text covers DC50, Dmax and IC50 for twelve compounds.

For assay [1], the target named is T1, IRAK4 protein in THP-1 cells (Homo sapiens, UniProt Q9NWZ3).
T1 construct: endogenous in cells; host or cells: THP-1
T1 sequence (Q9NWZ3 1-460): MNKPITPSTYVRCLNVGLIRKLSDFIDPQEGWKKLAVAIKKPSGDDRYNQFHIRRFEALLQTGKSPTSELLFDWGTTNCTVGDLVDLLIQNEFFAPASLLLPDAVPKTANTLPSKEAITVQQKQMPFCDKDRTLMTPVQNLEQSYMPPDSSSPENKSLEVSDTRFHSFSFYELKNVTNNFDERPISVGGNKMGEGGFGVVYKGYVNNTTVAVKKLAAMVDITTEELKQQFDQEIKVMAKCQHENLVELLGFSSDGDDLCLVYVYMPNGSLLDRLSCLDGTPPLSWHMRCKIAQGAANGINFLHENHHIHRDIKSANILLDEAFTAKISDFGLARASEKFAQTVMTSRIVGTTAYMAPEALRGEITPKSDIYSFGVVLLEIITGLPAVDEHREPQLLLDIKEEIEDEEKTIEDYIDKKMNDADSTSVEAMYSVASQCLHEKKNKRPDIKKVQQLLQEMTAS
In words: Degradation of IRAK4 in THP-1 cells (Western blot). In kind it is cell-based. The following applies: 24 hours, compound 1-3000 nM. Here is the method: Each well of the 24-well cell culture plate was inoculated with 0.95 mL THP-1 cells (stem cell bank of Chinese academy of sciences) with a cell density of 5×10^5 cells/well. The cell plate was placed in a 5% carbon dioxide incubator and cultured overnight at 37° C., then 50 μL compound in dimethyl sulfoxide was added. The final concentration of the compound was in the range of 1-3000 nM. After continuous cultivation for 24 hours, the cells were collected into a 1.5 mL centrifuge tube, centrifuged at 1000 rpm and 4° C. for 5 minutes. Cell precipitation was cleaned twice with 1-DPBS, resuspended cells were lysed with 200 μL lysate (cell lysate was Western and IP cell lysate (Beyotime), supplemented with 1 mM mixture of phenylmethylsulfonyl fluoride and protease inhibitor (Beyotime)), left on ice for 30 minutes, then centrifuged at 14000 g at 4° C. for 10 minutes, and the supernatant was taken to detect IRAK4 protein level by Western blot.
Western blot method: The total protein concentration in the supernatant of cell lysis was determined by BCA protein quantitative kit (Tiangen). According to the concentration of total protein detected by BCA, the supernatant was adjusted to 0.2 μg/μL with PBS and 5× SDS-PAGE protein loading buffer (Beyotime), bathed in water at 100° C. for 10 minutes, then placed in ice bath for 5 minutes, centrifuged at 14000 g and 4° C. for 5 minutes, and then collected as WB loading sample. Prefabricated glue (KeyGEN) was used for protein electrophoresis with a loading amount of 10 μL (total protein 2 μg). After Tris-MOPS-SDS electrophoresis solution (Adamas), 120V constant pressure electrophoresis was performed. After electrophoresis, the protein on the adhesive strip was transferred to PVDF membrane with a constant current of […] for 50 minutes. After the membrane was transferred, the membrane was placed in 1×QuickBlock blocking buffer (Beyotime) and incubated for 30 minutes at room temperature. After blocking, PVDF membranes were incubated with IRAK4 primary antibody (Abcam) overnight at 4°, the membranes were washed with TBST buffer (2.4 g Tris, 8.8 g NaCl, 1.5 mL Tween 20, pH adjusted to 7.4, constant volume to 1 L) for 30 minutes, incubated with secondary antibody (Abcam) for 2 hours at room temperature, finally incubated with Clarity Western ECL Substrate(BIO-RAD) for 5 minutes for luminescence development, chemiluminescence imaging system (Clinx, chemiScope 6200 Touch) for development and protein mapping photography. The protein map was analyzed by Clinx chemiluminescence analysis software for grayscale values. Using the formula: grayscale correction value=(target protein grayscale value/corresponding internal reference grayscale value)×10^3, the grayscale correction value of each sample was calculated. The degradation rate was calculated by comparing with the grayscale correction value of the control group. Furthermore, DC50 and Dmax values of the compound were obtained by the nonlinear curve fitting with the logarithmic concentration-inhibition rate by GraphPad Prism 7.

The target of the next assay is T2, IRAK4 kinase (Homo sapiens, UniProt Q9NWZ3).
T2 sequence (Q9NWZ3 1-460): T1 sequence (Q9NWZ3 1-460)
Put plainly: IRAK4 kinase activity test (KinEASE-STK S1 HTRF kit). It is filed as biochemical. The following applies: 2.5 nM kinase, 1 μM biotinylated polypeptide substrate, 7 μM ATP, 37° C. 120 min. Here is the method:
KinEASE-STK S1 serine/threonine kinase kit (Cisbio) was used to detect the inhibitory effect of the compound on IRAK4 kinase activity. The specific method was: the compound was dissolved in dimethyl sulfoxide, and then it was diluted with the buffer solution of the kit by equal gradient to make the final concentration range of the tested compound in the reaction system 10000 nM-0.038 nM, then 2.5 nM kinase, 1 μM biotinylated polypeptide substrate and 7 μM adenosine triphosphate (ATP) were added in sequence and incubated at 37° C. for 120 min. Subsequently, anti-phosphorylated serine/threonine antibody coupled with europium element compound and modified XL665 streptavidin were added to the reaction system to terminate the reaction. After incubating at room temperature for 1 h, the fluorescence intensity of each well at the emission wavelength of 620 nm and 665 nm and the excitation wavelength of 337 nm was determined in HTRF mode on the microplate reader EnVision(PerkinElmer), the ratio value was calculated using the formula Ratio=(665 nm/620 nm)×10^4. By comparing with the fluorescence intensity ratio of the control group, the inhibition rate of the compound at each concentration was calculated, and then the IC50 value of the compound was obtained by fitting the nonlinear curve with the logarithmic concentration-inhibition rate by GraphPad Prism 7.
(In general: TR-FRET usually uses a lanthanide donor and a delayed reading to cut background.)

Regarding `COc1cc2nn(C3CCN(CC4CC5(CCN(C(=O)c6ccc(Cl)c(N7CCC(=O)NC7=O)c6)CC5)C4)CC3)cc2cc1NC(=O)c1cccc(C(F)(F)F)n1` [Example 39, N-(2-(1-((7-(4-chloro-3-(2,4-dioxotetrahydro-pyrimidin-1 (2H)-yl)benzoyl)-7-azospiro [3.5]non-2-yl)methyl)piperidin-4-yl)-6-methoxy-2H-indazol-5-yl)-6-(trifluoromethyl) pyridinecarbox-amide], in assay [1], half-maximal degradation (DC50) was put at 10.5 nM and the Dmax (in general, the greatest extent of degradation seen) was 89.4%. Also, the IC50 (usually the point on the concentration scale where inhibition reaches its midpoint) against IRAK4 kinase was found to be 16.7 nM.

As to `CN(CC1CCN(C(=O)c2ccc(Cl)c(N3CCC(=O)NC3=O)c2)CC1)C[C@H]1CC[C@H](n2cc3cc(NC(=O)c4cccc(C(F)(F)F)n4)c(C(C)(C)O)cc3n2)CC1` [Example 62], in assay [1], the DC50 (usually the midpoint of the concentration-degradation curve) was determined as 5.6 nM and the Dmax was 92.3%. The IC50 against IRAK4 kinase was determined as 6.9 nM.

In assay [1], `COc1cc2nn(C3CCN(CC4CCC5(CC4)CCN(C(=O)c4ccc(F)c(C6CCC(=O)NC6=O)c4)CC5)CC3)cc2cc1NC(=O)c1cccc(C(F)(F)F)n1` (centres unmarked) [Example 42, N-(2-(1-((3-(3-(2,6-dioxopiperidin-3-yl)-4-fluoro-benzoyl)-3-azaspiro [5.5]undec-9-yl)methyl)piperidin-4-yl)-6-methoxy-2H-indazol-5-yl)-6-(trifluoromethyl) pyridinecarbox-amide] gave a DC50 of 7.8 nM and a maximal degradation (Dmax) of 100%. This compound also showed an IC50 against IRAK4 kinase of 39.2 nM.

In assay [1], `COc1cc2nn(C3CCN(CCC4CCC5(CC4)CCN(C(=O)c4ccc(F)c(N6CCC(=O)NC6=O)c4)CC5)CC3)cc2cc1NC(=O)c1cccc(C(F)(F)F)n1` [Example 46, N-(2-(1-(2-(3-(3-(2,4-dioxotetrahydro-pyrimidin-1 (2H)-yl)-4-fluoro-benzoyl)-3-azaspiro[5.5]undec-9-yl)ethyl)piperidin-4-yl)-6-methoxy-2H-indazol-5-yl)-6-(tri-fluoromethyl) pyridinecarbox-amide] had a DC50 of 4 nM and a Dmax of 97.8%. Further, half-maximal inhibition on IRAK4 kinase (IC50) was put at 43.1 nM.

In assay [1], `COc1cc2nn(C3CCN(CCN4CCC5(CC4)CCN(C(=O)c4ccc(Cl)c(N6CCC(=O)NC6=O)c4)CC5)CC3)cc2cc1NC(=O)c1cccc(C(F)(F)F)n1` [Example 16, N-(2-(1-(2-(9-(4-chloro-3-(2,4-dioxotetrahydro-pyrimidin-1 (2H)-yl)benzoyl)-3,9-diazaspiro[5.5]undec-3-yl)ethyl)piperidin-4-yl)-6-methoxy-2H-in-dazol-5-yl)-6-(tri-fluoromethyl) pyridinecarbox-amide] displayed a DC50 of 7.1 nM and a Dmax of 99.4%. For the same compound, on IRAK4 kinase, half-maximal inhibition (IC50) was put at 9.2 nM.

In assay [1], `COc1ccc(C(=O)N2CCC3(CCN(CCN4CCC(n5cc6cc(NC(=O)c7cccc(C(F)(F)F)n7)c(C(C)(C)O)cc6n5)CC4)CC3)CC2)cc1N1CCC(=O)NC1=O` [Example 10, N-(2-(1-(2-(9-(3-(2,4-dioxotetrahydropyrimidin-1 (2H)-yl)-4-methoxybenzoyl)-3,9-diazaspiro[5.5]undec-3-yl)ethyl)piperidin-4-yl)-6-(2-hydroxyprop-2-yl)-2H-indazol-5-yl)-6-(trifluoromethyl) pyridinecarboxamide] had a DC50 of 2.3 nM and a Dmax of 100%. The same compound yielded an IC50 on IRAK4 kinase of 6.5 nM.

As for `COc1cc2nn([C@H]3CC[C@H](CN(C)CCCCC4CCN(C(=O)c5ccc(Cl)c(N6CCC(=O)NC6=O)c5)CC4)CC3)cc2cc1NC(=O)c1cccc(C(F)(F)F)n1` [Example 67, N-(2-((1r,4r)-4-(((4-(1-(4-chloro-3-(2,4-dioxotetrahydro-pyrimidin-1 (2H)-yl)benzoyl)piperidin-4-yl)butyl) (methyl)amino)methyl)cyclohexyl)-6-methoxy-2H-indazol-5-yl)-6-(trifluoro-methyl) pyridinecarbox-amide], in assay [1], the DC50 was 11.5 nM and the Dmax is 99.2%. For the same compound, half-maximal inhibition against IRAK4 kinase (IC50) was put at 5.13 nM.

In assay [1], `COc1cc2nn(C3CCN(CCC4CC5(CCN(C(=O)c6ccc(Cl)c(N7CCC(=O)NC7=O)c6)CC5)C4)CC3)cc2cc1NC(=O)c1cccc(C(F)(F)F)n1` [Example 43, N-(2-(1-(2 (7-(4-chloro-3-(2,4-dioxotetrahydro-pyrimidin-1 (2H)-yl)benzoyl)-7-azospiro [3.5]non-2-yl)ethyl)piperidin-4-yl)-6-methoxy-2H-indazol-5-yl)-6-(trifluoromethyl) pyridinecarbox-amide] showed a DC50 of 4.9 nM and a Dmax of 98.7%. Further, at IRAK4 kinase, inhibition was half-maximal at 24.2 nM (IC50).

On to `COc1ccc(C(=O)N2CCC3(CC2)CC(CCN2CCC(n4cc5cc(NC(=O)c6cccc(C(F)(F)F)n6)c(C(C)(C)O)cc5n4)CC2)C3)cc1N1CCC(=O)NC1=O` [Example 26], for which, in assay [1], half-maximal degradation (DC50) was put at 1 nM and the Dmax was determined as 86.9%. The same compound registered an IC50 against IRAK4 kinase of 6.5 nM.

As for `CC(C)(O)c1cc2nn(C3CCN(CCC4CCN(C(=O)c5ccc(Cl)c(N6CCC(=O)NC6=O)c5)CC4)CC3)cc2cc1NC(=O)c1cccc(C(F)(F)F)n1` [Example 35], in assay [1], the DC50 worked out at 8.4 nM and the Dmax was found to be 95.2%. Also, it took 10.3 nM to reach half-maximal inhibition against IRAK4 kinase (IC50).

For the compound `COc1cc2nn(C3CCN(CCOCCOc4ccc5c(c4)C(=O)N(C4CCC(=O)NC4=O)C5=O)CC3)cc2cc1NC(=O)c1cccc(C(F)(F)F)n1` (centres unmarked) [Control group 1, N-(2-(1-(2-(2-((2-(2,6-dioxopiperidin-3-yl)-1,3-dioxoisoindol-5-yl)oxy)ethoxy)ethyl)piperidin-4-yl)-6-methoxy-2H-indazol-5-yl)-6-(trifluoromethyl) pyridinecarboxamide, reference compound], the DC50 in assay [1] turned out to be 38.1 nM. Besides, half-maximal inhibition against IRAK4 kinase (IC50) required 44.2 nM.

In assay [1], `COc1cc2nn([C@H]3CC[C@H](CN(C)C4CCN(C5CCN(C(=O)c6ccc(Cl)c(N7CCC(=O)NC7=O)c6)CC5)CC4)CC3)cc2cc1NC(=O)c1cccc(C(F)(F)F)n1` [Example 65, N-(2-((1r,4r)-4-(((1′-(4-chloro-3-(2,4-dioxotetrahydro-pyrimidin-1 (2H)-yl)benzoyl)-[1,4′-bi-piperidin]-4-yl) (methyl)amino)methyl)cyclohexyl)-6-methoxy-2H-indazol-5-yl)-6-(trifluoro-methyl) pyridinecarbox-amide] yielded a 50% degradation concentration (DC50) of 13.4 nM and a Dmax of 98.3%. For the same compound, on IRAK4 kinase, the half-maximal inhibitory concentration (IC50) amounted to 1.6 nM.
